Data reported in patent publication US20240424134A1, “PEPTIDE HAVING INDEPENDENTLY STABILIZED HYDROPHOBIC ALPHA HELIX, PEPTIDE COMPLEX COMPRISING SAME AND USES THEREOF” (UIF (University Industry Foundation), Yonsei University, priority 2022, published 2024).
Entries after “also recorded” stand apart in the source; their conditions may differ. Non-standard residues stand in square brackets, D forms with d. Primed or numbered codes have the meaning given here. No end group written: not given here. PEG8′ = not defined here; Aib = CC(C)(N)C(=O)O

Columns and labels:
[1] = CD (circular dichroism) spectroscopy of α-helix structure; format: physicochemical; settings: for α-helix structure (in words): from CD spectra
Method: To evaluate the structures of a linear plasmid DNA and peptides, CD spectra were analyzed using a Chirascan CD spectrometer (Applied Photophysics, UK). […] The final concentration of the linear plasmid DNA was 30 ng/μL. All the samples were dissolved in H2O. For the formation of the artificial chromosome, a mixture of the peptide and the DNA was incubated for 12 days or longer. Scanning was performed using a 2-mm path-length cuvette. Each scan was repeated three times and averaged. MRE (mean residue ellipticity) was calculated based on the number of amino acid residues.
CD (circular dichroism) spectroscopy was performed as follows.
The CD spectra were analyzed using a Chirascan CD spectrometer (Applied Photophysics, UK). […] All the samples were dissolved in H2O. Each scan was repeated three times using a 2-mm path-length cuvette and averaged. MRE (mean residue ellipticity) was calculated based on the number of amino acid residues.

[2] = AFM analysis of self-assembled peptide complexes; format: physicochemical; settings: for Average diameter (nm) / AFM morphology: Table 12, self-assembled structure; for AFM morphology: 25 μM in distilled water
Method: AFM was performed using an NX10 system (Park Systems, Korea) in a non-contact mode with PPP-NCHR AFM probes (Nanosensors, Switzerland). The DNA concentration ranged from 1 to 30 ng/μL and the peptide concentration ranged from 1 to 32 μM (in H2O). 2 μL of the sample solution was cast onto a freshly cleaved mica surface and dried. The data obtained by the SmartScan program (Park Systems, Korea) was analyzed using the XEI program (Park Systems, Korea).
The CD spectroscopy was performed in the same manner as in Test Example 2 and the AFM was performed using the NX10 system (Park Systems, Korea) in a non-contact mode with PPP-NCHR AFM probes (Nanosensors, Switzerland). The peptide complex concentration ranged from 1 to 32 μM (in H2O). 2 μL of the sample solution was cast onto a freshly cleaved mica surface and dried. The data obtained by the SmartScan program (Park Systems, Korea) were analyzed using the XEI program (Park Systems, Korea).
The peptide complexes of Examples 37-40 were imaged by AFM. 25 μM of the peptide complex was dissolved in distilled water, sonicated for 5 minutes, incubated overnight and dropped on mica for measurement.

[3] = Table 11, peptide complexes of Examples 37-97

Substance	θ222 nm/θ208 nm ratio [1, 3]	Average diameter (nm) [2]	AFM morphology [2]	also measured
Example 40: peptide complex (Wαm-RGD), SEQ ID NO 40 (AXAXAXAXAXAXAXAXAXAXAGRGDRGDG; RGD peptides; SITE 2 2-aminoisobutyric acid; SITE 4 2-aminoisobutyric acid; SITE 6 2-aminoisobutyric acid; SITE 8 2-aminoisobutyric acid; SITE 10 2-aminoisobutyric acid; SITE 12 2-aminoisobutyric acid; SITE 14 2-aminoisobutyric acid; SITE 16 2-aminoisobutyric acid; SITE 18 2-aminoisobutyric acid; SITE 20 2-aminoisobutyric acid)	0.99	20-30 nm	Micelle	α-helix structure (in words) [1]: most perfect α-helix structure; average diameter ([2]; AFM): 20 nm; self-assembly behavior in an aqueous solvent ([2]; AFM): self-assembled into spherical particles such as micelles; also recorded: micelle particles; length of micelle particles ([2]; AFM, FIG. 80): 7.2-12.4 nm
RAUAUAUAUA(PEG8)2 (RA[Aib]A[Aib]A[Aib]A[Aib]A-{PEG8′-PEG8′-NH2}) [Example 58]	0.36	–	Not assembled	–
RRRAUAUAUAUAUAUAUAUAUAUAGRGDRGDRGDG (RRRA[Aib]A[Aib]A[Aib]A[Aib]A[Aib]A[Aib]A[Aib]A[Aib]A[Aib]A[Aib]AGRGDRGDRGDG) [Example 69]	0.88	40-260 nm	Vesicle	–
AUAUAUAUAUAUAUA(PEG8)2 [Example 53]	1.11	20-30 nm	Micelle	–
EEEEAUAUAUAUAUAUAUAUAUAUA(PEG8)2 (EEEEAXAXAXAXAXAXAXAXAXAXA; (PEG8)2 C-terminal; SITE 6 2-aminoisobutyric acid; SITE 8 2-aminoisobutyric acid; SITE 10 2-aminoisobutyric acid; SITE 12 2-aminoisobutyric acid; SITE 14 2-aminoisobutyric acid; SITE 16 2-aminoisobutyric acid; SITE 20 2-aminoisobutyric acid; SITE 18 2-aminoisobutyric acid; SITE 22 2-aminoisobutyric acid; SITE 24 2-aminoisobutyric acid) [Example 93]	1.16	180-360 nm	Vesicle	–
Example 38: peptide complex (Wαm-RGD), SEQ ID NO 38 (L[Aib]L[Aib]L[Aib]L[Aib]LGRGDRGDG)	0.44	50-200 nm	Vesicle	self-assembly behavior in an aqueous solvent ([2]; AFM): spherical particles
EAUAUAUAUAUAUAUAUAUAUAGSGSGSGS (EA[Aib]A[Aib]A[Aib]A[Aib]A[Aib]A[Aib]A[Aib]A[Aib]A[Aib]A[Aib]AGSGSGSGS) [Example 95]	1.2	240-280 nm	Vesicle	–
Example 39: peptide complex (Wαm-RGD), SEQ ID NO 39 (A[Aib]A[Aib]A[Aib]A[Aib]A[Aib]A[Aib]A[Aib]AGRGDRGDG)	0.7	20 nm	Micelle	average diameter ([2]; AFM): 20 nm; self-assembly behavior in an aqueous solvent ([2]; AFM): self-assembled into spherical particles such as micelles; also recorded: micelle particles; average height ([2]; AFM, FIG. 80): 2-4 nm; length of micelle particles ([2]; AFM, FIG. 80): 6-10 nm
RRAUAUAUAUAUAUAUAUAUAUAGRGDRGDRGDG (RRA[Aib]A[Aib]A[Aib]A[Aib]A[Aib]A[Aib]A[Aib]A[Aib]A[Aib]A[Aib]AGRGDRGDRGDG) [Example 68]	0.89	40-110 nm	Vesicle	–
EEEAUAUAUAUAUAUAUAUAUAUA(PEG8)2 [Example 92]	1.2	200 nm	Vesicle	–
RGDRGDAUAUAUAUAUAUAUAUAUAUAR [Example 70]	1.14	50 nm	Vesicle	–
RRRRAUAUAUAUAUAUAUAUAUAUA(PEG8)2 (RRRRAXAXAXAXAXAXAXAXAXAXA; (PEG8)2 C-terminal; SITE 6 2-aminoisobutyric acid; SITE 8 2-aminoisobutyric acid; SITE 10 2-aminoisobutyric acid; SITE 12 2-aminoisobutyric acid; SITE 14 2-aminoisobutyric acid; SITE 16 2-aminoisobutyric acid; SITE 18 2-aminoisobutyric acid; SITE 20 2-aminoisobutyric acid; SITE 22 2-aminoisobutyric acid; SITE 24 2-aminoisobutyric acid) [Example 63]	1.03	20-50 nm	Micelle	self-assembly behavior in an aqueous solvent ([2]; AFM): self-assembles into spherical particles
(PEG8)2AUAUAUAUAUAUAUAUAUAUA(PEG8)2 [Example 125]	–	–	–	[θ]222/[θ]208 ([1]; Table 14, coil-rod-coil peptide complexes): 1.21; [θ]222/[θ]203 ratio ([1]; depending on concentration): 1.1-1.2; self-assembly behavior in an aqueous solvent ([2]; AFM): did not self-assemble
Example 41: peptide complex (Wαm-RGD, Wαm-GS), SEQ ID NO 41 (A[Aib]A[Aib]A[Aib]A[Aib]A[Aib]A[Aib]A[Aib]A[Aib]A[Aib]A[Aib]AGRGDRGDRGDG)	0.91	20-40 nm	Micelle	–
WAUAUAUAUAUGHHHHHHHHHHGRGDRGDRGDG [Example 105]	–	–	–	[θ]222/[θ]208 ([1]; Table 13, cyclic peptide complexes): 0.38
EAUAUAUAUAUAUAUAUAUAUARGDRGDRGD (EA[Aib]A[Aib]A[Aib]A[Aib]A[Aib]A[Aib]A[Aib]A[Aib]A[Aib]A[Aib]ARGDRGDRGD) [Example 94]	1.06	–	–	–
Example 37: peptide complex (Wαm-RGD), SEQ ID NO 37 (A[Aib]A[Aib]A[Aib]A[Aib]AGRGDRGDG)	0.28	–	Irregular vesicle	–
AUAUAUAUAUAUAUAUAUAUA [Example 14]	–	–	–	θ222 nm/θ208 nm ratio ([1]; Table 10, hydrophobic peptides of Examples 1-36): 1.26; α-helix structure (in words) [1]: monomeric, nonpolar and perfect α-helix (MNP-helix) structure

Continued, in another order:

θ222 nm/θ208 nm ratio [1, 3]	Average diameter (nm) [2]	AFM morphology [2]	Substance	also measured
1.11	20-40 nm	Micelle	(PEG8)2 AUAUAUAUAUAUAUA [Example 56]	–
0.54	–	Not assembled	AUAUAUAUA(PEG8)2 [Example 52]	–
1.22	30-80 nm	Vesicle	(PEG8)2 AUAUAUAUAUAUAUAUAUAUA [Example 57]	–
1.1	30-40 nm	Micelle	RAUAUAUAUAUAUAUAUAUAUARGDRGDRGD [Example 64]	–
1.2	20-90 nm	Micelle, vesicle	AUAUAUAUAUAUAUAUAUAUA(PEG8)2 [Example 54]	–
1.12	50-100 nm	Vesicle	RGDRGDRGDAUAUAUAUAUAUAUAUAUAUAR [Example 71]	–
0.91	20-30 nm	Micelle	RAUAUAUAUAUAUAUAUAUAUAGRGDRGDRGDG [Example 66]	–
1.08	110-150 nm	Vesicle	RRRAUAUAUAUAUAUAUAUAUAUA(PEG8)2 [Example 62]	–
1.21	20-30 nm	Micelle	EAUAUAUAUAUAUAUAUAUAUA(PEG8)2 [Example 90]	–
0.94	20 nm	Micelle	RAUAUAUAUAUAUAUAUAUAUARGDRGDRGDRGD [Example 65]	–
1.18	20-30 nm	Micelle	EEAUAUAUAUAUAUAUAUAUAUA(PEG8)2 [Example 91]	–
1.13	90-250 nm	Vesicle	RRAUAUAUAUAUAUAUAUAUAUA(PEG8)2 [Example 61]	–
0.77	160-410 nm	Vesicle	RAUAUAUAUAUAUAUA(PEG8)2 [Example 59]	–
0.88	–	–	WAUAUAUAUAUAU(PEG2)5 [Example 48]	[θ]222/[θ]208 ([1]; Table 9, linear and cyclic αm-PEG10 peptide complexes, in H2O): 0.88
0.58	–	Not assembled	(PEG8)2 AUAUAUAUA [Example 55]	–
1.11	–	–	RGDRGDRGDAUAUAUAUAUAUAUAUAUAUARR [Example 74]	–
